Test results as given in PubChem BioAssay (NCI).
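Five concentrations, 48 hours, 96-well plates. Abbreviation: GI50, concentration required for 50% inhibition of growth. At the TGI there is no net growth.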

Assays:
Test in all cases: DTP human tumour cell line panel, 48 h
COLO 205 colon = test system: COLO 205 colon
EKVX NSCLC = test system: EKVX NSCLC
SK-MEL-2 melanoma = test system: SK-MEL-2 melanoma
CCRF-CEM leukemia = test system: CCRF-CEM leukemia
MCF7 breast = test system: MCF7 breast
U251 CNS = test system: U251 CNS
SK-MEL-28 melanoma = test system: SK-MEL-28 melanoma
NCI-H522 lung = test system: NCI-H522 lung
HOP-92 NSCLC = test system: HOP-92 NSCLC
LOX IMVI melanoma = test system: LOX IMVI melanoma
OVCAR-3 ovarian = test system: OVCAR-3 ovarian
SW-620 colon = test system: SW-620 colon
OVCAR-4 ovarian = test system: OVCAR-4 ovarian
SR leukemia = test system: SR leukemia
PC-3 prostate = test system: PC-3 prostate
KM12 colon = test system: KM12 colon
BT-549 breast = test system: BT-549 breast
HOP-62 NSCLC = test system: HOP-62 NSCLC
786-0 renal = test system: 786-0 renal
ACHN renal = test system: ACHN renal
RXF 393 renal = test system: RXF 393 renal
MALME-3M melanoma = test system: MALME-3M melanoma
NCI-H460 lung = test system: NCI-H460 lung
MDA-MB-231 breast = test system: MDA-MB-231 breast
SF-295 CNS = test system: SF-295 CNS
UACC-62 melanoma = test system: UACC-62 melanoma
T-47D breast = test system: T-47D breast
NCI-H23 lung = test system: NCI-H23 lung
SF-268 CNS = test system: SF-268 CNS
SN12C renal = test system: SN12C renal
SK-OV-3 ovarian = test system: SK-OV-3 ovarian
M14 melanoma = test system: M14 melanoma
HS 578T breast = test system: HS 578T breast
MDA-MB-435 = test system: MDA-MB-435
A549 NSCLC = test system: A549 NSCLC
OVCAR-8 ovarian = test system: OVCAR-8 ovarian
RPMI-8226 leukemia = test system: RPMI-8226 leukemia
IGROV1 ovarian = test system: IGROV1 ovarian
UACC-257 melanoma = test system: UACC-257 melanoma
HCT-15 colon = test system: HCT-15 colon
HCT-116 colon = test system: HCT-116 colon
HL-60(TB) leukemia = test system: HL-60(TB) leukemia
K-562 leukemia = test system: K-562 leukemia
HT29 colon = test system: HT29 colon
NCI-H226 lung = test system: NCI-H226 lung
A498 renal = test system: A498 renal
CAKI-1 renal = test system: CAKI-1 renal
UO-31 renal = test system: UO-31 renal
NCI/ADR-RES ovarian = test system: NCI/ADR-RES ovarian
SF-539 CNS = test system: SF-539 CNS
SNB-19 CNS = test system: SNB-19 CNS
HCC-2998 colon = test system: HCC-2998 colon
OVCAR-5 ovarian = test system: OVCAR-5 ovarian
DU-145 prostate = test system: DU-145 prostate
SK-MEL-5 melanoma = test system: SK-MEL-5 melanoma
TK-10 renal = test system: TK-10 renal
SNB-75 CNS = test system: SNB-75 CNS
MOLT-4 leukemia = test system: MOLT-4 leukemia

Question: With `CCOc1ccc(C(=O)Nc2ncc(Cc3ccc(F)cc3)s2)cc1` as the compound, how does the GI50 (COLO 205 colon) read?
Answer: 164 nM

Question: What about the GI50 (EKVX NSCLC) of the same compound?
Answer: 347 nM

Question: What about the TGI (EKVX NSCLC) of the same compound?
Answer: > 100000 nM

Question: And the GI50 (SK-MEL-2 melanoma)?
Answer: 117 nM

Question: What about the GI50 (CCRF-CEM leukemia) of the same compound?
Answer: 108 nM

Question: And the TGI (CCRF-CEM leukemia)?
Answer: > 52700 nM

Question: What about the GI50 (MCF7 breast) of the same compound?
Answer: 53.7 nM

Question: And the TGI (MCF7 breast)?
Answer: > 100000 nM

Question: And the GI50 (U251 CNS)?
Answer: 230 nM

Question: What about the TGI (U251 CNS) of the same compound?
Answer: > 62600 nM

Question: And the GI50 (SK-MEL-28 melanoma)?
Answer: 1230 nM

Question: What about the TGI (SK-MEL-28 melanoma) of the same compound?
Answer: > 100000 nM

Question: What about the GI50 (NCI-H522 lung) of the same compound?
Answer: 78.1 nM

Question: What about the TGI (NCI-H522 lung) of the same compound?
Answer: 375 nM

Question: What about the GI50 (HOP-92 NSCLC) of the same compound?
Answer: 8750 nM

Question: What about the TGI (HOP-92 NSCLC) of the same compound?
Answer: > 86100 nM

Question: What about the GI50 (LOX IMVI melanoma) of the same compound?
Answer: 145 nM

Question: And the TGI (LOX IMVI melanoma)?
Answer: > 100000 nM

Question: What about the GI50 (OVCAR-3 ovarian) of the same compound?
Answer: 162 nM

Question: What about the TGI (OVCAR-3 ovarian) of the same compound?
Answer: > 22200 nM

Question: What about the GI50 (SW-620 colon) of the same compound?
Answer: 77.8 nM

Question: What about the TGI (SW-620 colon) of the same compound?
Answer: > 100000 nM

Question: And the GI50 (OVCAR-4 ovarian)?
Answer: 1630 nM

Question: What about the TGI (OVCAR-4 ovarian) of the same compound?
Answer: > 100000 nM

Question: What about the GI50 (SR leukemia) of the same compound?
Answer: 34.4 nM

Question: What about the TGI (SR leukemia) of the same compound?
Answer: > 100000 nM

Question: And the GI50 (PC-3 prostate)?
Answer: 169 nM

Question: And the TGI (PC-3 prostate)?
Answer: > 100000 nM

Question: And the GI50 (KM12 colon)?
Answer: 83.6 nM

Question: And the TGI (KM12 colon)?
Answer: > 100000 nM

Question: What about the GI50 (BT-549 breast) of the same compound?
Answer: 1730 nM

Question: And the TGI (BT-549 breast)?
Answer: > 100000 nM

Question: What about the GI50 (HOP-62 NSCLC) of the same compound?
Answer: 309 nM

Question: And the TGI (HOP-62 NSCLC)?
Answer: > 50000 nM

Question: And the GI50 (786-0 renal)?
Answer: 340 nM

Question: What about the TGI (786-0 renal) of the same compound?
Answer: > 54500 nM

Question: And the GI50 (ACHN renal)?
Answer: 455 nM

Question: What about the TGI (ACHN renal) of the same compound?
Answer: > 100000 nM

Question: And the GI50 (RXF 393 renal)?
Answer: 151 nM

Question: And the TGI (RXF 393 renal)?
Answer: 672 nM

Question: What about the GI50 (MALME-3M melanoma) of the same compound?
Answer: 1130 nM

Question: What about the TGI (MALME-3M melanoma) of the same compound?
Answer: > 100000 nM

Question: And the GI50 (NCI-H460 lung)?
Answer: 113 nM

Question: And the TGI (NCI-H460 lung)?
Answer: > 100000 nM

Question: What about the GI50 (MDA-MB-231 breast) of the same compound?
Answer: 371 nM

Question: What about the TGI (MDA-MB-231 breast) of the same compound?
Answer: > 86100 nM

Question: And the GI50 (SF-295 CNS)?
Answer: 144 nM

Question: What about the TGI (SF-295 CNS) of the same compound?
Answer: > 33000 nM

Question: And the GI50 (UACC-62 melanoma)?
Answer: 107 nM

Question: What about the TGI (UACC-62 melanoma) of the same compound?
Answer: > 100000 nM

Question: And the GI50 (T-47D breast)?
Answer: 248 nM

Question: And the TGI (T-47D breast)?
Answer: > 100000 nM

Question: And the GI50 (NCI-H23 lung)?
Answer: 466 nM

Question: And the TGI (NCI-H23 lung)?
Answer: > 100000 nM

Question: And the GI50 (SF-268 CNS)?
Answer: 4610 nM

Question: And the TGI (SF-268 CNS)?
Answer: > 91900 nM

Question: What about the GI50 (SN12C renal) of the same compound?
Answer: 345 nM

Question: And the TGI (SN12C renal)?
Answer: > 100000 nM

Question: What about the GI50 (SK-OV-3 ovarian) of the same compound?
Answer: 289 nM

Question: And the TGI (SK-OV-3 ovarian)?
Answer: > 64900 nM

Question: What about the GI50 (M14 melanoma) of the same compound?
Answer: 94.1 nM

Question: What about the TGI (M14 melanoma) of the same compound?
Answer: > 100000 nM

Question: What about the GI50 (HS 578T breast) of the same compound?
Answer: 399 nM

Question: And the TGI (HS 578T breast)?
Answer: > 39300 nM

Question: And the GI50 (MDA-MB-435)?
Answer: 22.1 nM

Question: And the TGI (MDA-MB-435)?
Answer: 55.1 nM

Question: What about the GI50 (A549 NSCLC) of the same compound?
Answer: 257 nM

Question: What about the TGI (A549 NSCLC) of the same compound?
Answer: > 100000 nM

Question: What about the GI50 (OVCAR-8 ovarian) of the same compound?
Answer: 376 nM

Question: And the TGI (OVCAR-8 ovarian)?
Answer: > 52300 nM

Question: What about the GI50 (RPMI-8226 leukemia) of the same compound?
Answer: 157 nM

Question: And the TGI (RPMI-8226 leukemia)?
Answer: > 100000 nM

Question: What about the GI50 (IGROV1 ovarian) of the same compound?
Answer: 409 nM

Question: And the TGI (IGROV1 ovarian)?
Answer: > 100000 nM

Question: What about the TGI (UACC-257 melanoma) of the same compound?
Answer: > 100000 nM

Question: What about the GI50 (HCT-15 colon) of the same compound?
Answer: 49.4 nM

Question: And the TGI (HCT-15 colon)?
Answer: > 100000 nM

Question: And the GI50 (HCT-116 colon)?
Answer: 93 nM

Question: And the TGI (HCT-116 colon)?
Answer: > 100000 nM

Question: What about the GI50 (HL-60(TB) leukemia) of the same compound?
Answer: 52 nM

Question: What about the TGI (HL-60(TB) leukemia) of the same compound?
Answer: 4680 nM

Question: What about the GI50 (K-562 leukemia) of the same compound?
Answer: 44.3 nM

Question: And the TGI (K-562 leukemia)?
Answer: > 100000 nM

Question: What about the GI50 (HT29 colon) of the same compound?
Answer: 77.1 nM

Question: What about the GI50 (NCI-H226 lung) of the same compound?
Answer: 319 nM

Question: And the TGI (NCI-H226 lung)?
Answer: 7630 nM

Question: What about the GI50 (A498 renal) of the same compound?
Answer: > 34000 nM

Question: What about the TGI (A498 renal) of the same compound?
Answer: > 90500 nM

Question: And the GI50 (CAKI-1 renal)?
Answer: 74.9 nM

Question: And the TGI (CAKI-1 renal)?
Answer: > 44200 nM

Question: What about the GI50 (UO-31 renal) of the same compound?
Answer: 350 nM

Question: What about the TGI (UO-31 renal) of the same compound?
Answer: > 66500 nM

Question: And the GI50 (NCI/ADR-RES ovarian)?
Answer: 117 nM

Question: What about the TGI (NCI/ADR-RES ovarian) of the same compound?
Answer: > 100000 nM

Question: And the GI50 (SF-539 CNS)?
Answer: 161 nM

Question: And the TGI (SF-539 CNS)?
Answer: 2750 nM

Question: And the GI50 (SNB-19 CNS)?
Answer: 402 nM

Question: And the TGI (SNB-19 CNS)?
Answer: > 100000 nM

Question: What about the GI50 (HCC-2998 colon) of the same compound?
Answer: 213 nM

Question: What about the TGI (HCC-2998 colon) of the same compound?
Answer: > 100000 nM

Question: What about the GI50 (OVCAR-5 ovarian) of the same compound?
Answer: 387 nM

Question: And the TGI (OVCAR-5 ovarian)?
Answer: > 100000 nM

Question: And the GI50 (DU-145 prostate)?
Answer: 387 nM

Question: And the TGI (DU-145 prostate)?
Answer: > 100000 nM

Question: And the GI50 (SK-MEL-5 melanoma)?
Answer: 322 nM

Question: What about the TGI (SK-MEL-5 melanoma) of the same compound?
Answer: > 100000 nM

Question: And the GI50 (TK-10 renal)?
Answer: 29300 nM

Question: And the TGI (TK-10 renal)?
Answer: > 75900 nM

Question: And the GI50 (SNB-75 CNS)?
Answer: 69.3 nM

Question: What about the TGI (SNB-75 CNS) of the same compound?
Answer: 3440 nM

Question: What about the GI50 (MOLT-4 leukemia) of the same compound?
Answer: 151 nM

Question: What about the TGI (MOLT-4 leukemia) of the same compound?
Answer: > 100000 nM
